Measurements published in US10081662B2, “Modified relaxin B chain peptides” (The Florey Institute of Neuroscience and Mental Health, priority 2014, dated 2018).

Assays:
[1] = system: mouse model of isoproterenol (ISO) induced cardiac fibrosis; test: Mouse model of isoproterenol-induced cardiomyopathy (cardiac fibrosis); assay type: in vivo; conditions: 129SV mice, 14 days, s.c. minipump; relative to isoproterenol treatment
From the text: (§1) Seven to eight-week old male 129SV mice (which are sensitive to tissue injury and fibrosis) and age-matched female Balb/c mice (which are sensitive to changes in airway hyperresponsiveness) were used for the induction of isoproterenol-induced cardiomyopathy and ovalbumin-induced chronic allergic airways disease, respectively. 16 five week-old male C57BL/6 mice were used in the induction of prostate cancer growth. All animals were obtained from Monash Animal Services (Monash University, Clayton, Victoria, Australia) and housed under standard conditions (maintained on an 12 h light-12 h dark lighting cycle with free access to food and water) in the Department of Pharmacology Animal Room at Monash University.
(§2) The mid zone of the male mouse heart and largest lung lobe from female Balb/c mice were fixed in 10% neutral buffered formalin for 24-48 h before being processed and embedded routinely in paraffin wax. Representative sections of tissue, 3-5 um each, were taken and stained with either picrosirius red (Samuel et al. 2011 Lab Invest 91, 675-690) for the detection of interstitial collagen or Masson's trichrome (Royce et al, 2009, Endocrinology 150, 2692-2699) for the detection of subepithelial basement membrane collagen deposition).
(§3) Changes in picrosirius-red stained interstitial collagen or epithelial thickness and subepithelial collagen (fibrosis) around the airway lumen from Masson's trichrome-stained sections; which were all captured (at ×20 magnification) using a SPOT digital camera (Q Imaging, Burnaby, BC, Canada) and analysed with Image J 1.3 software (National Institutes of Health, Bethesda, Md.). Four to five fields per mid zone of the heart or 4-5 airways (of 150-350 μm in diameter) per mouse were assessed. Epithelial thickness and subepithelial collagen regions were traced with a digital pen and the thickness of each region calculated by the imaging software. Results were expressed as mean thickness ([…]) of the 4-5 airways sampled.
The apical region of the heart or second largest lung lobe from each mouse was treated as described previously (Samuel C S, et at., 2003, FASEB J 17, 121-123; Royce et at. 2009, Endocrinology 150, 2692-2699) for the determination of hydroxyproline content. Hydroxyproline values were estimated based on a standard curve constructed with serial dilutions of a 0.1 mg/mL stock of trans-4-hydroxyproline-L-proline (Sigma-Aldrich). Hydroxyproline values were then converted to collagen content as detailed previously (Samuel CS, et al. 2004. Endocrinology 145, 4125-4133) and, in turn, divided by the dry weight of each corresponding left ventricular or lung tissue assessed to yield collagen concentration (a measure of fibrosis). […]

[2] = system: RM1 mouse prostate tumour cells; test: Prostate tumour growth after injection of RM1 cells into prostates of C57BL/6 mice; assay type: in vivo; conditions: day 10 after RM1 cells, s.c. mini-pump from day 2, H2 relaxin 0.15, B7-33 C11.23S 0.075 mg/kg/day, vs untreated
From the text: as §1
H2 relaxin can induce prostate and other tumour growth. To measure the effect of B7-33 C11.23S on tumour growth, 16 five week-old male C57BL/6 mice (obtained from Monash Animal Services) were injected with 5000 RM1 (mouse prostate tumor) cells into their prostates to induce tumor growth. One sub-group of mice n=5) was left untreated until day 10 post-RM1 cell administration. […]

[3] = dose printed as 0.5 mg/mg/day; Samuel et al. 2003; cited from earlier work
[4] = system: rat model of myocardial infarction; test: Rat model of myocardial infarction-induced heart failure; assay type: in vivo; conditions: vs vehicle
Procedure: Adult male Sprague-Dawley rats weighing 250-320 g were obtained from Animal Resources Centre, Perth, Wash., Australia. The rats were group housed in a constant temperature of 22±1° C. and a relative humidity of 50-60% under a controlled light-dark cycle of 12 hours. Rats were given access to standard laboratory rat chow and drinking water ad libitum.
Heart failure was induced as previously described (Ruchaya et al., 2014, Exp Physiol 99, 111-122). Breifly, to induce heart failure, rats were anaesthetised with an intramuscular injection of ketamine (60 mg/kg) and medetomide hydrochloride ([…]). A left sided thoracotomy through an opening between the fourth and fifth rib was performed, the heart was exteriorised and the left anterior descending coronary artery was ligated. Anaesthesia was reversed with antipamezole hydrocholide (1 mg/kg). Penicillin (1000 U) and buprenorphine (0.05 mg/kg) was administered to aid post-operative recovery. Animals were left to recover from the surgery under a heating source. Rats were individually housed after the surgery.
Eight weeks after myocardial infarction surgery, rats were randomly assigned to 3 groups (vehicle, H2 and B7-33), re-anaesthetised (2-3% isoflurane) and an osmotic mini-pump (model 2ML4, Alzet, Cupertino, Calif.) implanted intraperitoneally. Vehicle (saline), native H2 relaxin (0.5 mg/kg/day) or B7-33 C11.23S (0.5 mg/kg/day) was continuously administered for 28 days. At the conclusion of treatment, rats were anaesthetized (sodium pentobarbitone, 60 mg/kg i.p.) and the left ventricular end-diastolic pressure determined prior to decapitation and removal of the heart for histological analysis.

[5] = Solubility of relaxin B chain peptides in aqueous solution; conditions: aqueous solution
[6] = system: mouse model of OVA-induced chronic allergic airway disease; test: Mouse model of OVA-induced chronic allergic airway disease; assay type: in vivo; conditions: Balb/c mice
From the text: as §1
Twenty-four hours after the last vehicle/drug administration, methacholine-induced airway reactivity was assessed by invasive plethysmography as described before (Locke et al. 2007, Am J Respir Mol Biol 36, 625-632; Royce et al. 2009, Endocrinology 150, 2692-2699). Mice were anaesthetized intraperitoneally with 200 μg/g ketamine and 10 μg/g xylazine. Tracheotomy was performed using an 18-gauge tracheotomy tube and jugular vein cannulated with a 0.61 9 0.28 mm polyethylene tube (Microtube Extrusions, North Rocks, NSW, Australia), Mice were then placed in a plethysmograph chamber (Buxco Research Systems, Wilmington, N.C., USA) where increasing concentrations of acetyl-β-methacholine (from 31.25 μg/kg to 500 μg/kg) were delivered intravenously in five doses. After every dose, airway resistance and compliance were measured (Biosystem XA version 2.7.9; Buxco Electronics Inc, Wilmington, N.C., USA). The change in airway resistance calculated by the maximal resistance after each dose minus baseline resistance (phosphate buffered saline alone) was plotted against each dose of methacholine evaluated.
as §2, §3
The apical region of the heart or second largest lung lobe from each mouse was treated as described previously (Samuel C S, et at., 2003, FASEB J 17, 121-123; Royce et at. 2009, Endocrinology 150, 2692-2699) for the determination of hydroxyproline content. Hydroxyproline values were estimated based on a standard curve constructed with serial dilutions of a 0.1 mg/mL stock of trans-4-hydroxyproline-L-proline (Sigma-Aldrich). Hydroxyproline values were then converted to collagen content as detailed previously (Samuel CS, et al. 2004. Endocrinology 145, 4125-4133) and, in turn, divided by the dry weight of each corresponding left ventricular or lung tissue assessed to yield collagen concentration (a measure of fibrosis).
The inventors also tested the fibrosis preventing activity of B7-33 C11.23S in a model of chronic allergic airway disease (AAD). […]

For “H2 relaxin: Native human relaxin-2: heterodimer of A chain (24 residues) and B1-29 B chain with three disulfide bonds”, the “Percentage of interstitial collagen in the left ventricle (picrosirius red)” value [1] was “significantly reduced”, the “Total left ventricular collagen concentration (hydroxyproline analysis)” value [1] was “significantly reduced” and the Prostate tumour size [2] was “significantly increased tumour size”. For the same substance, the Circulating levels [3] was 20 to 40 ng/mL, the “Percentage of collagen in the interstitial area of the left ventricle” value ([4]; 0.5 mg/kg/day i.p. mini-pump for 28 days from 8 weeks after MI) was “significant reduction” and the “Left ventricular end-diastolic pressure (LVEDP)” value ([4]; 12 weeks after myocardial infarction) was “reduced”. For the same substance, the “Aqueous solubility (in words)” value [5] was “very soluble”, the “Airway hyper-responsiveness (change in airway resistance to methacholine)” value ([6]; OVA-induced increase, invasive plethysmography, FIG. 8D) was “attenuated” and the “Mean airway epithelial thickness” value ([6]; compared to OVA treatment, FIG. 8B) was “significantly reduced”. For the same substance, the “Total lung collagen content (hydroxyproline analysis)” value ([6]; relative to OVA treatment, FIG. 8C) was “normalised”.
